Results taken from patent US11077080B2, “Use of anti-connexin agents for modulating the therapeutic effect of psychotropic drugs” (Commissariat A L'Energie Atomique Et Aux Energies …, priority 2008, dated 2021).

System: electrical activity of the prefrontal cortex
Assay: Quantitative EEG spectral analysis (FFT relative powers) in conscious rats
Type: in vivo, Wistar rats
Settings: for actual EEG effect: MFA 0.4 mg/kg ip; for increase in the relative powers in the prefrontal cortex: paroxetine 0.5 mg/kg ip alone
Procedure: A group of 6 conscious Wistar rats was pre-implanted with 6 bipolar bilateral electrodes (2 frontal, 2 anterior hippocampic, 2 posterior hippocampic).
Different treatments were conducted by circular combination of 6 rats by treatment (psychotropic treatment alone, anti-connexin treatment alone, anti-connexin+psychotropic combination treatment). The injection of meclofenamic acid (Sigma) is performed by slow submeningeal injection (80 ng/kg, 4.5 pg/second) or intraperitoneally at different doses. The injection of glycyrrhetinic acid (Sigma) is performed by submeningeal injection (80 ng/kg). The injection of clozapine (Sigma) is performed intraperitoneally (0.2 mg/kg). The injection of paroxetine (Sigma) is performed intraperitoneally (0.5 mg/kg). The injection of modafinil (Cephalon) is performed intraperitoneally (125 mg/kg and 250 mg/kg).
The EEG measurements were performed on the different groups of conscious rats (previously implanted and habituated) by 2-hour recordings after injection. The spectral analysis performed by Fourier transform (FFT) makes it possible to obtain relative powers, Hertz-by-Hertz and second-by-second. The FFT data is then averaged minute-by-minute and associated with the solvent control produced the day prior to the recording under strictly identical experimental conditions. The relative spectral powers of the left and right prefrontal cortices are then averaged by 5-minute periods, averaged by groups of 12 5-minute repetitions and represented hour-by-hour.
The data obtained from the relative quantitative EEG analysis of the effects of the different drugs administered individually (psychotropic alone or anti-connexin agents alone), presented in the examples, were subjected to a statistical analysis by analysis of variance (ANOVA) with three factors: “Frequency” (by Hz), “Time” (first and second hour by 12 averaged 5-minute repetitions) and “Animal” (6 different animals for each treatment). For the combinations of psychotropic and anti-connexin agents presented in the examples, a fourth ANOVA factor was introduced: “Anti-connexin combination”. The significance threshold of the relative power modifications for a given frequency for a psychotropic drug alone with respect to the control (solvent of the psychotropic agent) or a psychotropic drug in combination with an anti-connexin with respect to the psychotropic agent administered alone (in favor of a relative power increase or a decrease) was chosen at a value of P<0.05.

[1] = diazepam 1 mg/kg ip alone, first hour

Cc1ccc(Cl)c(Nc2ccccc2C(=O)O)c1Cl [MFA, Benzoic 2-[(2,6-di-chloro-3-phenyl)amino] acid]
increase in the EEG potential / synchronization of the prefrontal cerebral activity (MFA 80 ng/kg submeningeal, 8-10 Hz, first hour extending to second hour): 140% | actual EEG effect (first hour): no significant modification | actual EEG effect (second hour): slight significant increase | synchronization of the prefrontal cerebral activity at the second hour (MFA central administration (80 ng/kg submeningeal), second hour): decreases | synchronization of the prefrontal cerebral activity at the second hour (MFA peripheral administration (2.45 mg/kg ip), second hour): significant increase in synchronization continues at the second hour

CC(NC(C)(C)C)C(=O)c1cccc(Cl)c1 (stereo not drawn) [bupropion]
increase in power of the 8-10 Hz components (bupropion 0.16 mg/kg ip alone, first hour): around 180% | increase in power of the 8-10 Hz components (bupropion 0.8 mg/kg ip alone, first hour): ~450% | increase in power of the 8-10 Hz components (bupropion 4 mg/kg ip alone, first hour): ~280%

CN1CCN(C2=Nc3cc(Cl)ccc3Nc3ccccc32)CC1 [clozapine]
increase in the EEG potential / synchronization of the prefrontal cerebral activity (clozapine 0.2 mg/kg ip alone, 8-10 Hz, from first hour extending to second hour): 200%

CN1C(=O)CN=C(c2ccccc2)c2cc(Cl)ccc21 [diazepam]
decrease in power of the 4-7 Hz components [1]: around 25% | increase in the power of the 11-30 Hz components [1]: around 120%

CN(C)CCC[C@@]1(c2ccc(F)cc2)OCc2cc(C#N)ccc21 [escitalopram]
increase in power of the 6-8 Hz components (escitalopram 0.8 mg/kg ip alone, first hour): around 150% | increase in power of the 6-8 Hz components (escitalopram 4 mg/kg ip alone, first hour): ~200%

NC(=O)C[S+]([O-])C(c1ccccc1)c1ccccc1 (stereo not drawn) [modafinil]
increase in the EEG potential / synchronization of the prefrontal cerebral activity (modafinil 125 mg/kg ip alone, 2-5 Hz): 120% | increase in the EEG potential / synchronization of the prefrontal cerebral activity (modafinil 250 mg/kg ip alone, 2-5 Hz): 300%

Fc1ccc([C@@H]2CCNC[C@H]2COc2ccc3c(c2)OCO3)cc1 [paroxetine]
increase in the relative powers in the prefrontal cortex (8-10 Hz, first hour): around 200% | increase in the relative powers in the prefrontal cortex (8-10 Hz, second hour): around 300%

CN[C@H]1CC[C@@H](c2ccc(Cl)c(Cl)c2)c2ccccc21 [sertraline]
increase in power of the 7-9 Hz components (sertraline 0.16 mg/kg ip alone, first hour): around 260% | increase in power of the 7-9 Hz components (sertraline 0.8 mg/kg ip alone, first hour): around 260% | increase in power of the same components at the second hour (sertraline 0.8 mg/kg ip alone, second hour): 900% | increase in power of the 7-9 Hz components (sertraline 4 mg/kg ip alone, first hour): ~200% | increase in power of the same components at the second hour (sertraline 4 mg/kg ip alone, second hour): 450%

COc1ccc(C(CN(C)C)C2(O)CCCCC2)cc1 (stereo not drawn) [venlafaxine]
increase in power of the 8-10 Hz components (venlafaxine 0.16 mg/kg ip alone, first hour): around 120% | increase in power of the 8-10 Hz components (venlafaxine 4 mg/kg ip alone, first hour): ~200%
